Type in all cases: cell-based
One experiment deals with EP4 (Homo sapiens (Human), UniProt P35408). The experiment is described as follows: hEP4 cAMP assay (BT549 breast cancer cells, HTRF cAMP). The settings on record: antagonistic activity, PGE2 6 nM. The text has this: (§1) Human tumor cell lines expressing endogenously either EP4 or EP2 are used and cAMP accumulation in cells upon PGE2 stimulation is monitored. SF295 glioblastoma cells express high endogenous EP2 and no EP4, whereas BT549 breast cancer cells, express high endogenous EP4 levels and very low EP2 levels.
(§2) As a detection method for cAMP the HTRF (homogeneous time resolved fluorescence) Cisbio kit (HTRF cAMP dynamic 2 kit 20'000 tests Cisbio Cat. #62AM4PEC) was used, which is based on a competitive immunoassay using a Cryptate-labeled anti-cAMP antibody and d2-labeled cAMP. Native cAMP produced by cells or unlabeled cAMP (for the standard curve) compete with exogenously added d2-labeled cAMP (acceptor) for binding to monoclonal anti-cAMP-Eu3+Cryptate (donor). A FRET signal (Fluorescence Resonance Energy Transfer) is obtained only if the labeled anti-cAMP antibody binds the d2 labelled cAMP, thus the specific signal (i.e. energy transfer) is inversely proportional to the concentration of cAMP in the standard or sample.
(§3) Cells are counted washed and resuspended in assay buffer (AB; HBSS, 20 mM HEPES, 0.2% BSA; 2 mM IBMX).
Plate is pre-incubated 45 minutes at RT. Subsequently, 2.5 microliters of PGE2 (final conc. 6 nM) are transferred into the assay plate. Plate is incubated 30 minutes at RT.
On the technique in general: Changes in cAMP serve as a functional read-out for many G protein-coupled receptors.

The next experiment deals with EP2 (Homo sapiens (Human), UniProt P43116). Kind of experiment: hEP2 cAMP assay (SF295 glioblastoma cells, HTRF cAMP). The settings on record: antagonistic activity.
Text: as §1, §2, §3
Plate is pre-incubated 45 minutes at RT. […] Plate is incubated 30 minutes at RT.

The next experiment concerns the target PTGER2 (EP2) (Homo sapiens (Human), UniProt P43116). The experiment is described as follows: hEP2 b-arrestin assay (PathHunter HEK 293 PTGER2 b-arrestin cells). The settings on record: antagonistic activity, beta-arrestin assay; read-out: hEP2 b-arr IC50. On the procedure:
Plate is pre-incubated 15 minutes at 37° C. Then five microliters of PGE2 (final conc. 5 μM) are transferred into the assay plate. Plate is incubated 120 minutes at 37° C.
(each concentration is measured in duplicate)

What is called IC50 is the concentration at which inhibition is half-maximal.

EP2, sequence (P43116 whole entry): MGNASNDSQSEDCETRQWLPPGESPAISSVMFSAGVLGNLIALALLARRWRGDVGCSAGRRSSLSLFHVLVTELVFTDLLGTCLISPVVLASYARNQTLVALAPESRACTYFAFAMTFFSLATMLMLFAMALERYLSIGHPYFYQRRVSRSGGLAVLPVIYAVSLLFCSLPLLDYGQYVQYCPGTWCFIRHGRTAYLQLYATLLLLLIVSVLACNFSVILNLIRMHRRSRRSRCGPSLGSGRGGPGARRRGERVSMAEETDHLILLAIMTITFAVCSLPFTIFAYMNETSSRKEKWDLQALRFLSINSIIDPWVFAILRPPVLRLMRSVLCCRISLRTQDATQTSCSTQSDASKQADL
PTGER2 (EP2), sequence (P43116 whole entry): as above
EP4, sequence (P35408 whole entry): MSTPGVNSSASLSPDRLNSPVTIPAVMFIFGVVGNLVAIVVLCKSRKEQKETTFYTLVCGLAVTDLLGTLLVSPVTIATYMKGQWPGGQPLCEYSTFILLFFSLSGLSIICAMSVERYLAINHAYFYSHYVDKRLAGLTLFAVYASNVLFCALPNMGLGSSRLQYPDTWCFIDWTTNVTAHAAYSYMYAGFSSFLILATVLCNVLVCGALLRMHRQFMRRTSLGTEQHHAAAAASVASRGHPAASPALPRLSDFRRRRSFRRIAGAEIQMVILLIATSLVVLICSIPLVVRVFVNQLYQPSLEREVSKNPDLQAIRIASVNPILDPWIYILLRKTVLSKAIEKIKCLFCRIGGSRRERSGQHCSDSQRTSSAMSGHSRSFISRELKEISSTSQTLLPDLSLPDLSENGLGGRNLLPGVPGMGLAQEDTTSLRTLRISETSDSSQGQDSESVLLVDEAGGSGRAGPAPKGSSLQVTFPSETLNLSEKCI

On to `CCOc1cc(-c2cc(NCCc3cc4ccoc4cc3F)ncn2)ccc1C(=O)O` [Ex 227, 2-Ethoxy-4-{6-[2-(6-fluoro-benzofuran-5-yl)-ethylamino]-pyrimidin-4-yl}-benzoic acid], for which the IC50 on EP4 is 293 nM; against EP2 it was 88 nM; on PTGER2 (EP2), 142 nM.

In the case of `Cc1cc2c(cc1CCNc1cc(-c3ccc(C(=O)O)c(OC4CCC4)c3)ncn1)OC=CO2` [Ex 288], the values for the IC50 against EP4, against EP2 and at PTGER2 (EP2) were 523 nM, 85 nM and 156 nM, respectively.

Take `O=C(O)c1ccc(-c2cc(NCCc3ccc4cc[nH]c4c3)ncn2)cc1OC1CCC1` [Ex 278, 2-Cyclobutoxy-4-{6-[2-(1H-indol-6-yl)-ethylamino]-pyrimidin-4-yl}-benzoic acid]: the IC50 was 477 nM at EP4, 187 nM at EP2 and 281 nM on PTGER2 (EP2).

On to `CCOc1cc(-c2cc(NCCc3ccc4ccccc4c3C)ncn2)ccc1-c1noc(O)n1` [Ex 220], for which the IC50 at EP4 was 283 nM; against EP2 it was 141 nM; at PTGER2 (EP2), 113 nM.

For the molecule `Fc1cc2ncccc2c(F)c1CCNc1cc(-c2ccc3[nH]ccc3c2)ncn1` [Ex 330, [2-(5,7-Difluoro-quinolin-6-yl)-ethyl]-[6-(1H-indol-5-yl)-pyrimidin-4-yl]-amine], the figures for the IC50 at EP4, against EP2 and on PTGER2 (EP2) were 1040 nM, 249 nM and 158 nM, respectively.

As for `CCOc1cc(-c2cc(NCCc3cc4ccoc4cc3OC)ncn2)ccc1OC(C)C(=O)O` (stereo not drawn) [Ex 233, 2-(2-Ethoxy-4-{6-[2-(6-methoxy-benzofuran-5-yl)-ethylamino]-pyrimidin-4-yl}-phenoxy)-propionic acid], the IC50 at EP4 worked out at 322 nM; against EP2 it was 76 nM; at PTGER2 (EP2), 29 nM.

`CCOc1cc(-c2cc(NCCc3ccc4cc[nH]c4c3)ncn2)ccc1OC(C)C(=O)O` (stereo not drawn) [Ex 223]: the results for the IC50 at EP4, against EP2 and at PTGER2 (EP2) were 288 nM, 199 nM and 329 nM, respectively.

Consider `CCOc1cc(-c2cc(NCCc3cc4c(cnn4C)cc3OC)ncn2)sc1C(=O)O` [Ex 251], for which the IC50 was determined as 369 nM at EP4, 132 nM at EP2 and 105 nM at PTGER2 (EP2).

With `COc1cc2c(cc1CCNc1cc(-c3ccc(C(=O)O)c(OC4CCC4)c3)ncn1)OCO2` [Ex 213, 2-Cyclobutoxy-4-{6-[2-(6-methoxy-benzo[1,3]dioxol-5-yl)-ethylamino]-pyrimidin-4-yl}-benzoic acid], the values for the concentration for half-maximal inhibition (IC50) at EP4, on EP2 and on PTGER2 (EP2) were 256 nM, 46 nM and 59 nM, respectively.

`O=C(O)c1ccc(-c2cc(NCCc3c(F)cc4ncccc4c3F)ncn2)cc1OC1CCC1` [Ex 228]: the IC50 was 300 nM against EP4, 194 nM against EP2 and 392 nM at PTGER2 (EP2).

Take `CCOc1cc(-c2cc(NCCc3cc(Cl)c4c(c3)OCCO4)ncn2)ccc1C(=O)O` [Ex 324]: the IC50 was determined as 858 nM at EP4 and 899 nM against EP2.

Regarding `c1nc(NCCc2ccc3cc[nH]c3c2)cc(-c2ccc3[nH]ccc3c2)n1` [Ex 226, [2-(1H-Indol-6-yl)-ethyl]-[6-(1H-indol-5-yl)-pyrimidin-4-yl]-amine], the results for the IC50 against EP4, on EP2 and at PTGER2 (EP2) were 291 nM, 250 nM and 151 nM, respectively.

For the molecule `Cc1c(CCNc2cc(-c3ccc(C(=O)O)c(OC4CCC4)c3)ncn2)ccc2cccnc12` [Ex 235], the values for the IC50 at EP4 and at EP2 were 325 nM and 772 nM, respectively.

For `Cc1c(CCNc2cc(-c3ccc(-c4nc(O)no4)cc3)ncn2)ccc2ccccc12` [Ex 302], the IC50 at EP4 came to 520 nM; against EP2, 384 nM.

In the case of `Cc1c(Cl)c(CCNc2cc(-c3ccc(C(=O)O)c(OC4CCC4)c3)ncn2)cc2cccnc12` [Ex 263], the IC50 at EP4 came to 425 nM; against EP2, 524 nM.

Turning to `CCOc1cc(-c2cc(NCCc3cc4ccccc4cc3OC(F)F)ncn2)ccc1C(=O)O` [Ex 211], the IC50 on EP4 stood at 253 nM; on EP2 it was 571 nM.

Consider `CCOc1cc(-c2cc(NCCc3cc4ccoc4cc3F)ncn2)ccc1OC(C)C(=O)O` (stereo not drawn) [Ex 236], for which the IC50 was 327 nM on EP4, 147 nM at EP2 and 121 nM on PTGER2 (EP2).

Regarding `CCOc1cc(-c2cc(NCCc3ccc4ccccc4c3Cl)ncn2)ccc1C(=O)O` [Ex 260], the IC50 against EP4 was 404 nM; against EP2 it was 880 nM.

`Cc1c(CCNc2cc(-c3cc(OCCO)c(C(=O)O)s3)ncn2)ccc2ccccc12` [Ex 48]: the IC50 on EP4 stood at 22 nM; on EP2, 66 nM.

In the case of `COc1cc(-c2cc(NCCc3cc4cccnc4cc3F)ncn2)sc1C1(O)COC1` [Ex 283], the figures for the IC50 against EP4 and against EP2 were 502 nM and 618 nM, respectively.

Regarding `COc1cc2cc(F)oc2cc1CCNc1cc(-c2ccc(C(=O)O)c(OC3CCC3)c2)ncn1` [Ex 280], the IC50 at EP4 worked out at 491 nM; against EP2, 514 nM.

For the molecule `NC(=O)c1ccc(-c2cc(NCCc3ccc4cc[nH]c4c3)ncn2)s1` [Ex 294, 5-{6-[2-(1H-Indol-6-yl)-ethylamino]-pyrimidin-4-yl}-thiophene-2-carboxylic acid amide], the IC50 on EP4 worked out at 561 nM; on EP2 it was 786 nM.

For `O=C(O)c1ccc(-c2cc(NCCc3ccc4c(c3)OCCC4)ncn2)cc1OC1CCC1` [Ex 265, 4-[6-(2-Chroman-7-yl-ethylamino)-pyrimidin-4-yl]-2-cyclobutoxy-benzoic acid], the IC50 against EP4 turned out to be 428 nM; against EP2 it was 11400 nM.

In the case of `NC(=O)c1ccc(-c2cc(NCCc3c(F)cc4ncccc4c3F)ncn2)s1` [Example 356, 5-{6-[2-(5,7-Difluoro-quinolin-6-yl)-ethylamino]-pyrimidin-4-yl}-thiophene-2-carboxylic acid amide], the IC50 against EP4 was determined as 828 nM; against EP2 it was 2340 nM.

Take `CCOc1cc(-c2cc(NCCc3ccc4sccc4c3)ncn2)ccc1OC(C)(C)C(=O)O` [Ex 321]: the IC50 on EP4 was 772 nM; against EP2, 562 nM.

For `CCOc1cc(-c2cc(NCCc3cc4ccccc4cc3OC(C)C)ncn2)ccc1CC(=O)O` [Ex 258], the IC50 against EP4 was 390 nM; against EP2 it was 3610 nM.

With `CCOc1cc2ccccc2cc1CCNc1cc(-c2ccc(OC(C)(C)C(=O)O)c(OCC)c2)ncn1` [Ex 245], the IC50 at EP4 is 358 nM; against EP2, 304 nM.

With `CCOc1cc(-c2cc(NCCc3c(F)cc4ccccc4c3F)ncn2)ccc1CC(=O)O` [Ex 107], the figures for the IC50 at EP4 and on EP2 were 76 nM and 950 nM, respectively.

In the case of `COc1cc(-c2cc(NCCc3ccc4sccc4c3)ncn2)cc(OC)c1C(=O)O` [Ex 320, 4-[6-(2-Benzo[b]thiophen-5-yl-ethylamino)-pyrimidin-4-yl]-2,6-dimethoxy-benzoic acid], the figures for the IC50 on EP4 and against EP2 were 766 nM and 440 nM, respectively.

For the molecule `CCOc1cc(-c2cc(NCCc3cc4cccnc4c(F)c3Cl)ncn2)ccc1OCC(=O)O` [Ex 301], the IC50 against EP4 was 626 nM; at EP2 it was 425 nM.

On to `CCOc1cc(-c2cc(NCCc3ccc4ccccc4c3C)ncn2)sc1CC(=O)OC` [Ex 316], for which the results for the IC50 against EP4 and against EP2 were 729 nM and 792 nM, respectively.

As for `O=C(O)c1ccc(-c2cc(NCCc3cc(Cl)c4c(c3)OCCO4)ncn2)cc1OC1CCC1` [Ex 246], the IC50 came out at 364 nM at EP4 and 534 nM against EP2.

`CCOc1cc(-c2cc(NCCc3cc4ccccc4cc3OC)ncn2)cc(OC)c1C(=O)O` [Ex 282]: the values for the IC50 against EP4 and against EP2 were 498 nM and 296 nM, respectively.

Regarding `CCOc1cc(-c2cc(NCCc3cc4c(cc3OC)OCCO4)ncn2)ccc1OC(C)(C)C(=O)O` [Ex 313], the IC50 against EP4 is 691 nM; against EP2, 273 nM.

With `CCOc1cc(-c2cc(NCCc3ccc4[nH]ccc4c3)ncn2)ccc1OCC(=O)O` [Ex 225, (2-Ethoxy-4-{6-[2-(1H-indol-5-yl)-ethylamino]-pyrimidin-4-yl}-phenoxy)-acetic acid], the IC50 on EP4 worked out at 289 nM; at EP2, 923 nM.

Take `O=C(O)c1ccc(-c2cc(NCCc3ccc4[nH]ccc4c3)ncn2)cc1OC1CCC1` [Ex 322, 2-Cyclobutoxy-4-{6-[2-(1H-indol-5-yl)-ethylamino]-pyrimidin-4-yl}-benzoic acid]: the results for the IC50 against EP4 and on EP2 were 814 nM and 809 nM, respectively.

Regarding `c1nc(NCCc2ccc3cc[nH]c3c2)cc(-c2ccc3cc[nH]c3c2)n1` [Ex 267, [2-(1H-Indol-6-yl)-ethyl]-[6-(1H-indol-6-yl)-pyrimidin-4-yl]-amine], the results for the IC50 on EP4 and against EP2 were 431 nM and 306 nM, respectively.

For the molecule `COc1cc2ccccc2cc1CCNc1cc(-c2cc(OC)c(C(=O)O)c(OC)c2)ncn1` [Ex 300], the IC50 worked out at 624 nM at EP4 and 312 nM at EP2.

For `Oc1c(F)cc(-c2cc(NCCc3ccc4cc[nH]c4c3)ncn2)cc1F` [Ex 307, 2,6-Difluoro-4-{6-[2-(1H-indol-6-yl)-ethylamino]-pyrimidin-4-yl}-phenol], the IC50 against EP4 is 658 nM; against EP2 it was 677 nM.

For the origin of these results see patent publication US11839613B2, “Pyrimidine derivatives as PGE2 receptor modulators” (IDORSIA PHARMACEUTICALS LTD, priority 2017, dated 2023).
